How the values were obtained:
[1] = target: T1, Nuclear receptor subfamily 5 group A member 2 (Homo sapiens, UniProt O00482); test: Inhibition of full length LRH1 in HEK293T cells at 10 uM incubated for 20 hrs by luciferase reporter assay relative to control; format: cell-based
[2] = target: T1, Nuclear receptor subfamily 5 group A member 2; test: Inhibition of full length LRH1 transfected in HEK293T cells incubated for 20 hrs by luciferase reporter assay; format: cell-based
[3] = target: T1, Nuclear receptor subfamily 5 group A member 2; test: Antagonist activity at human recombinant LRH-1 LBD ([…] to 541 residues)
[4] = target: T1, Nuclear receptor subfamily 5 group A member 2; test: Antagonist activity at human LRH-1
[5] = target: T1, Nuclear receptor subfamily 5 group A member 2; test: Inhibition of full length LRH1 in HEK293T cells at 550 nM incubated for 20 hrs by luciferase reporter assay relative to control; format: cell-based

T1 sequence (O00482 whole entry): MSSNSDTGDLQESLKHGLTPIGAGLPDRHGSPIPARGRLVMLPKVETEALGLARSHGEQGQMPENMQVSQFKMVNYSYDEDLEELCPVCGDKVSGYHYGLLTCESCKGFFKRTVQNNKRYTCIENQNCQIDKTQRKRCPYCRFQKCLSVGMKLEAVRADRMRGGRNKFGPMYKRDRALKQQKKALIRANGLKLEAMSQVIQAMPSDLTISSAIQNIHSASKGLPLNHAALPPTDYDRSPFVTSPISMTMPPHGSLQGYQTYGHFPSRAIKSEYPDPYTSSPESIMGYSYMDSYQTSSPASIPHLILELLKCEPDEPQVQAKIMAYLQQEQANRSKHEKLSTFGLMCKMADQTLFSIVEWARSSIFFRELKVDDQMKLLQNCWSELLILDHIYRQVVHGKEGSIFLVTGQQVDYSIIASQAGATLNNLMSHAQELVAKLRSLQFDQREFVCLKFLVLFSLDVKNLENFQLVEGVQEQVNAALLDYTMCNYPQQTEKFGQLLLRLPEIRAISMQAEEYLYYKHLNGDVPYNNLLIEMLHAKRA

SMILES | IC50 [2] [µM] | IC50 [4] [µM] | further results
O=c1cc(N2CCN(c3cccc(Cl)c3)CC2)[nH]c(=O)n1C1CCCCC1 | 3.7 | – | inhibition [1]: 64%
O=C(c1ccc(OCCN2CCCCC2)cc1)c1c(-c2ccc(O)cc2)sc2c(C(=O)c3ccc(OCCN4CCCCC4)cc3)c(O)ccc12 | – | – | IC50 [3]: 3.1 µM
CC(=O)c1cccc(-c2cccc(-c3ccn(CCN4CCOCC4)n3)c2)c1 | – | 5 | –
Cc1nc(N(C)C)nc(-c2cccc(-c3ccn(CCN(C)C)n3)c2)c1C | – | 6 | –
O=c1cc(N2CCN(c3cccc(C(F)(F)F)c3)CC2)[nH]c(=O)n1C1CCCCC1 | 0.32 | – | inhibition [5]: 40%
